Laboratory results: patent US20260274895A1, “DE NOVO DESIGNED MEMBRANE-TRAVERSING AND ORALLY BIOAVAILABLE MACROCYCLES” (UNIVERSITY OF WASHINGTON, priority 2022, published 2026)
Where a SMILES comes first, the peptide text is derived from it. [ ]: non-standard residue; d: D form. NMeF = CN[C@@H](Cc1ccccc1)C(=O)O; dNMeF = CN[C@H](Cc1ccccc1)C(=O)O; NMeL = CN[C@@H](CC(C)C)C(=O)O; dNMeL = CN[C@H](CC(C)C)C(=O)O; NMeV = CN[C@H](C(=O)O)C(C)C; NMeA = CN[C@@H](C)C(=O)O; dNMeA = CN[C@H](C)C(=O)O

Conditions: PAMPA, PAMPA_Papp_Avg (apparent permeability)

Papp [×10⁻⁶ cm/s]	Structure (SMILES)
0.255	CC(C)C[C@@H]1NC(=O)[C@@H](C(C)C)NC(=O)[C@H](CC(C)C)N(C)C(=O)[C@H]2CCCN2C(=O)[C@@H](C(C)C)NC(=O)[C@H]2CCCN2C(=O)[C@@H](C(C)C)NC(=O)[C@@H](Cc2ccccc2)N(C)C(=O)[C@H](CC(C)C)N(C)C1=O (single isomer, unassigned) [Design D9.8.p2, *LvL*L*fvpvp]
3.92	CC[C@H](C)[C@@H]1NC(=O)[C@@H](CC(C)C)NC(=O)[C@H](CC(C)C)N(C)C(=O)[C@H](Cc2ccccc2)NC(=O)CN(C)C(=O)[C@@H]2CCCN2C(=O)[C@H](C(C)C)NC(=O)[C@H](Cc2ccccc2)N(C)C(=O)[C@H]2CCCN2C(=O)[C@H](CC(C)C)NC1=O (single isomer, unassigned) [Design D10.1.p1, lILp*FVP*GF*L]
6.31	CC(C)C[C@@H]1NC(=O)[C@H](Cc2ccccc2)NC(=O)[C@@H](CC(C)C)NC(=O)[C@H]2CCCN2C(=O)[C@H](C(C)C)NC(=O)[C@@H](CC(C)C)NC(=O)[C@H]2CCCN2C(=O)[C@@H]2CCCN2C1=O [Design D8.5, FLPplVpl] (cyclo(FLP[dP][dL]V[dP][dL]))
0.95	CC[C@H](C)[C@@H]1NC(=O)[C@@H](C)N(C)C(=O)[C@H]2CCCN2C(=O)[C@H]2CCCN2C(=O)[C@H](Cc2ccccc2)NC(=O)[C@@H](CC(C)C)NC(=O)[C@@H](CC(C)C)N(C)C(=O)[C@@H]2CCCN2C1=O [Design D8.17, P*llFpp*aI] (cyclo(F[dP][dP][dNMeA]IP[dNMeL][dL]))
0.626	CC(C)C[C@H]1NC(=O)[C@H]2CCCN2C(=O)[C@H](CC(C)C)N(C)C(=O)[C@@H](C)N(C)C(=O)[C@@H](Cc2ccccc2)NC(=O)[C@@H](C(C)C)NC(=O)[C@H]2CCCN2C(=O)[C@@H](CC(C)C)NC1=O [Design D8.19, f*a*Lpllpv] (cyclo([NMeL][dP][dL][dL][dP][dV][dF][dNMeA]))
0.544	CC[C@H](C)[C@@H]1NC(=O)[C@H]2CCCN2C(=O)[C@@H]2CCCN2C(=O)[C@@H](C(C)C)NC(=O)[C@@H](C)N(C)C(=O)[C@H](C)N(C)C(=O)[C@@H](CC(C)C)N(C)C(=O)[C@@H](C(C)C)NC1=O [Design D8.26, v*l*A*avPpI] (cyclo(I[dV][dNMeL][NMeA][dNMeA][dV]P[dP]))
0.315	CC[C@H](C)[C@@H]1NC(=O)[C@H](CC(C)C)N(C)C(=O)[C@H]2CCCN2C(=O)[C@H]2CCCN2C(=O)[C@H](Cc2ccccc2)NC(=O)[C@@H](CC(C)C)NC(=O)[C@H]2CCCN2C(=O)[C@@H]2CCCN2C1=O [Design D8.27, Fpp*LIPpl] (cyclo(F[dP][dP][NMeL]IP[dP][dL]))
0.236	CSCC[C@@H]1NC(=O)[C@@H]2CCCN2C(=O)[C@@H](C(C)C)NC(=O)[C@@H](C)N(C)C(=O)[C@@H](CC(C)C)NC(=O)[C@@H](CC(C)C)NC(=O)[C@@H]2CCCN2C(=O)[C@H]2CCCN2C1=O [Design D8.29, MpPll*avP] (cyclo([dL][dL][dNMeA][dV]PM[dP]P))
5.23	CC(C)C[C@@H]1C(=O)N[C@H](CC(C)C)C(=O)N2CCC[C@@H]2C(=O)N2CCC[C@@H]2C(=O)N(C)[C@@H](CC(C)C)C(=O)N[C@H](CC(C)C)C(=O)N2CCC[C@@H]2C(=O)N2CCC[C@H]2C(=O)N1C [Design D8.32, pp*LlpP*ll] (cyclo([dNMeL][dL][dP][dP][NMeL][dL][dP]P))
6	CC[C@@H](C)[C@H]1NC(=O)[C@H]2CCCN2C(=O)[C@@H]2CCCN2C(=O)[C@@H]([C@H](C)CC)NC(=O)[C@@H](Cc2ccccc2)NC(=O)[C@@H](Cc2ccccc2)N(C)C(=O)[C@@H]2CCCN2C(=O)[C@@H](C(C)C)NC1=O [Design D8.33, fiPpivP*f] (cyclo(P[dNMeF][dF][dI]P[dP][dI][dV]))
0.316	CC[C@H](C)[C@@H]1NC(=O)[C@@H](C)N(C)C(=O)[C@@H](C)N(C)C(=O)[C@@H]2CCCN2C(=O)[C@H](CC(C)C)NC(=O)[C@H](CC(C)C)NC(=O)[C@@H](CC(C)C)NC(=O)[C@@H]2CCCN2C(=O)[C@H]2CCCN2C1=O [Design D9.11, PlLLP*a*aIp] (cyclo([dL]LLP[dNMeA][dNMeA]I[dP]P))
0.421	CC[C@H](C)[C@@H]1NC(=O)[C@@H](CC(C)C)NC(=O)[C@@H]2CCCN2C(=O)[C@@H]2CCCN2C(=O)[C@@H](CC(C)C)NC(=O)[C@@H]2CCCN2C(=O)[C@H]2CCCN2C(=O)[C@@H](C(C)C)NC(=O)[C@@H](C)N(C)C1=O [Design D9.14, PlI*avpPlP] (cyclo([dL]PP[dL]I[dNMeA][dV][dP]P))
0.341	CC[C@H](C)[C@@H]1NC(=O)[C@@H](C)NC(=O)[C@@H]2CCCN2C(=O)[C@H]2CCCN2C(=O)[C@@H]2CCCN2C(=O)[C@@H](C)NC(=O)[C@@H](Cc2ccccc2)NC(=O)[C@@H](CC(C)C)N(C)C(=O)[C@@H](CC(C)C)N(C)C1=O [Design D9.15, PpPaI*l*lfa] (cyclo([dA]I[dNMeL][dNMeL][dF][dA]P[dP]P))
1.99	CC[C@@H](C)[C@H]1NC(=O)[C@H]2CCCN2C(=O)[C@@H](C)NC(=O)[C@@H](CC(C)C)N(C)C(=O)[C@H]([C@@H](C)CC)NC(=O)[C@@H](C(C)C)NC(=O)[C@@H](CC(C)C)N(C)C(=O)[C@@H]2CCCN2C(=O)[C@@H]2CCCN2C1=O [Design D9.26, piPP*lvI*la] (cyclo(I[dNMeL][dA][dP][dI]PP[dNMeL][dV]))
1.57	CSCC[C@@H]1NC(=O)[C@@H](C)N(C)C(=O)[C@@H]2CCCN2C(=O)[C@@H](CC(C)C)NC(=O)[C@H](CC(C)C)N(C)C(=O)[C@H]2CCCN2C(=O)[C@H](CC(C)C)NC(=O)[C@@H](CC(C)C)NC(=O)[C@@H](C)NC1=O [Design D9.28, lLp*LlP*aMa] (cyclo(L[dP][NMeL][dL]P[dNMeA]M[dA][dL]))
0.664	CC(C)C[C@@H]1C(=O)N[C@H](C)C(=O)N[C@@H](C(C)C)C(=O)N2CCC[C@@H]2C(=O)N[C@H](C(C)C)C(=O)N2CCC[C@@H]2C(=O)N2CCC[C@H]2C(=O)N[C@H](C)C(=O)N(C)[C@H](CC(C)C)C(=O)N1C [Design D9.29, vpPa*l*laVp] (cyclo([dA][dNMeL][dNMeL][dA]V[dP][dV][dP]P))
1.6	CC[C@@H](C)[C@H]1NC(=O)[C@H](CC(C)C)NC(=O)[C@@H](C)N(C)C(=O)[C@@H]2CCCN2C(=O)[C@H](C)NC(=O)[C@@H](CC(C)C)NC(=O)[C@H]2CCCN2C(=O)[C@H](C(C)C)NC(=O)[C@@H](CC(C)C)N(C)C1=O [Design D9.30, plAP*aLi*lV] (cyclo(AP[dNMeA]L[dI][dNMeL]V[dP][dL]))
1.02	CC[C@@H](C)[C@H]1NC(=O)[C@H](Cc2ccccc2)NC(=O)[C@@H](C)NC(=O)[C@@H](CC(C)C)N(C)C(=O)[C@@H]2CCCN2C(=O)[C@H](C)NC(=O)[C@H]2CCCN2C(=O)[C@@H]2CCCN2C(=O)[C@@H](Cc2ccccc2)NC1=O [Design D9.41, PpAP*laFif] (cyclo(AP[dNMeL][dA]F[dI][dF]P[dP]))
2.52	CC[C@H](C)[C@@H]1NC(=O)[C@@H](C(C)C)NC(=O)[C@@H]2CCCN2C(=O)[C@@H](CC(C)C)N(C)C(=O)[C@@H](C(C)C)NC(=O)[C@H](CC(C)C)N(C)C(=O)[C@H]2CCCN2C(=O)[C@@H](C)NC(=O)[C@H](Cc2ccccc2)N(C)C(=O)[C@H]2CCCN2C1=O [Design D10.3., Ip*Fap*Lv*lPv] (cyclo(I[dP][NMeF][dA][dP][NMeL][dV][dNMeL]P[dV]))
0.509	CC(C)C[C@@H]1C(=O)N2CCC[C@@H]2C(=O)N(C)[C@@H](C(C)C)C(=O)N[C@@H](C(C)C)C(=O)N2CCC[C@H]2C(=O)N2CCC[C@@H]2C(=O)N[C@@H](C)C(=O)N[C@H](C(C)C)C(=O)N(C)[C@@H](CC(C)C)C(=O)N[C@@H](C)C(=O)N1C [Design D10.6, PpAv*LA*lp*VV] (cyclo(A[dNMeL][dP][NMeV]VP[dP]A[dV][NMeL]))
2.69	CC[C@@H](C)[C@H]1NC(=O)[C@H](CC(C)C)N(C)C(=O)[C@H]2CCCN2C(=O)[C@H](CC(C)C)NC(=O)[C@H](Cc2ccccc2)N(C)C(=O)[C@H](CC(C)C)N(C)C(=O)[C@@H](C(C)C)NC(=O)[C@H](C)NC(=O)[C@H]2CCCN2C(=O)[C@@H]2CCCN2C1=O [Design D10.17, *L*FLp*LiPpAv] (cyclo(A[dV][NMeL][NMeF]L[dP][NMeL][dI]P[dP]))
0.756	CC[C@@H](C)[C@H]1NC(=O)[C@H](C(C)C)NC(=O)[C@H]2CCCN2C(=O)[C@@H]2CCCN2C(=O)[C@H](CC(C)C)N(C)C(=O)[C@H](C)N(C)C(=O)[C@@H](CC(C)C)N(C)C(=O)[C@H](C)NC(=O)[C@@H](Cc2ccccc2)NC(=O)[C@@H]2CCCN2C1=O [Design D10.25, fA*l*A*LPpViP] (cyclo(A[dNMeL][NMeA][NMeL]P[dP]V[dI]P[dF]))
0.808	CC[C@@H](C)[C@H]1NC(=O)[C@@H]2CCCN2C(=O)[C@@H](Cc2ccccc2)NC(=O)[C@H](CC(C)C)N(C)C(=O)[C@H](C)NC(=O)[C@H]2CCCN2C(=O)[C@@H]2CCCN2C(=O)[C@H](CC(C)C)NC(=O)[C@H](CC(C)C)N(C)C(=O)[C@H](C)N(C)C1=O [Design D10.26, Pi*A*LLPpA*Lf] (cyclo(A[NMeL][dF]P[dI][NMeA][NMeL]LP[dP]))
1.86	CC(C)C[C@H]1NC(=O)[C@H](CC(C)C)N(C)C(=O)[C@@H](Cc2ccccc2)NC(=O)[C@@H](C)N(C)C(=O)[C@@H]2CCCN2C(=O)[C@H](C(C)C)NC(=O)[C@H](CC(C)C)N(C)C(=O)[C@@H](C)NC(=O)[C@@H]2CCCN2C(=O)[C@H]2CCCN2C1=O [Design D10.32, P*af*LlpPa*LV] (cyclo([dA][NMeL]VP[dNMeA][dF][NMeL][dL][dP]P))
0.34	CSCC[C@@H]1NC(=O)[C@H](CC(C)C)NC(=O)[C@@H]2CCCN2C(=O)[C@H]2CCCN2C(=O)[C@@H](C)NC(=O)[C@H]2CCCN2C(=O)[C@@H](CC(C)C)NC(=O)[C@@H](C)N(C)C(=O)[C@H](CC(C)C)N(C)C(=O)[C@@H](C)N(C)C1=O [Design D10.40, M*a*L*alpapPL] (cyclo(LM[dNMeA][NMeL][dNMeA][dL][dP][dA][dP]P))
0.388	CC[C@@H](C)[C@H]1NC(=O)[C@@H](CC(C)C)NC(=O)[C@@H](CC(C)C)NC(=O)[C@H]2CCCN2C(=O)[C@H](CC(C)C)N(C)C(=O)[C@@H](C)N(C)C(=O)[C@@H]2CCCN2C(=O)[C@@H]([C@H](C)CC)NC(=O)[C@@H](C(C)C)NC(=O)[C@@H]2CCCN2C1=O [Design D10.46, PviP*a*Lplli] (cyclo([NMeL][dP][dL][dL][dI]P[dV][dI]P[dNMeA]))
